± gives the expanded uncertainty stated by the source.
Experiments:
[1] = Crystal; DTA
[2] = Molar enthalpy of transition or fusion; details: Crystal; DSC

Row | Normal melting temperature [1] | Molar enthalpy of transition or fusion [2] | SMILES
1 | -8.8 ± 0.4 °C | 2.25 ± 0.0789 kcal/mol | CCCC[N+]1(C)CCCC1.N#CC(=C=[N-])C#N [1-butyl-1-methylpyrrolidinium tricyanomethanide]
2 | -0.2 ± 0.4 °C | 2.88 ± 0.0908 kcal/mol | CCCC[N+]1(C)CCCC1.O=S(=O)([O-])C(F)(F)F [1-butyl-1-methylpyrrolidinium trifluoromethanesulfonate]
3 | 19.7 ± 0.4 °C | 4.97 ± 0.117 kcal/mol | CCCC[N+]1(C)CCCC1.N#C[B-](C#N)(C#N)C#N [1-butyl-1-methylpyrrolidinium tetracyanoborate]
4 | -27 ± 1 °C | 2.31 ± 0.0956 kcal/mol | OCCc1ccccc1 [2-phenylethanol]

From the NIST ThermoML archive (doi:10.1016/j.fluid.2015.10.016)
